The text below walks through data of patent publication US8652836B2, “Defective ribosomal products in blebs (DRibbles) and methods of use to stimulate an immune response” (Providence Health System, priority 2005, dated 2014).

Square brackets hold non-standard residues; d marks the D form. Peptide text beside a SMILES is read from it. * marks the point of attachment. Nle = CCCC[C@H](N)C(=O)O; Cbz = O=C(OCc1ccccc1)*

The test system of series [1] is 293T tumor cells expressing V-GFP-TfR-OVA. Description: In vitro cross-presentation of treated tumor cells by DC to OT-I T cells (CFSE dilution). In kind it is cell-based, human. Particulars: tumor cells treated as in Example 2, irradiated; FIG. 3. As to the method: (§1) The autophagy inhibitor […] (3-MA) and the autophagy inducer rapamycin were used to modulate autophagy and observe their effect on human 293T tumor cells expressing V-GFP-TfR-OVA fusion (a peptide containing mutated ubiquitin, GFP (green fluorescent protein), the transmembrane domain of transferrin receptor and chicken ovalbumin). In addition 10 mM NH4Cl was used to inhibit lysosome mediated protein degradation. Cells expressing V-GFP-TfR-OVA were either untreated, treated with 10 mM 3-MA for 24 hours, treated with 10 mM 3-MA and 1 μM Velcade for 24 hours, 50 nM rapamycin for 24 hours, 50 nM rapamycin and 1 μM Velcade for 24 hours, 10 mM NH4Cl for 24 hours, or with 1 μM Velcade and 10 mM NH4Cl for 24 hours. Cell lysates were prepared by resuspending pelleted cells in SDS containing sample lysis buffer and subjected to western blot analysis with anti-GFP antibody.
(§2) 293T tumor cells expressing V-GFP-TfR-OVA were treated as described in Example 2, and used as the source of antigens for cross-presentation in vitro after irradiation (15,000 rad). One million tumor cells were incubated with two million DC for 6 hours before the addition of CFSE labeled naïve T cells from OT-I transgenic mice that recognize peptides derived from OVA protein. The OT-I division as indicated by dilution of CFSE label was used as the readout.

Series [2] has as its system human 293T tumor cells expressing V-GFP-TfR-OVA fusion. Nature of the series: Western blot of fusion protein with anti-GFP antibody. In kind it is cell-based. To be noted: for full-length and short fragments of fusion proteins: 10 mM 3-MA, 1 μM Velcade, 10 mM NH4Cl, compared to untreated control cells. As to the method:
as §1
In general terms: A western blot detects proteins with antibodies after separation by electrophoresis.

The conditions of series [3]: oral administration; cited from earlier work.
For series [4] the following is noted: under refrigeration; cited from earlier work.
The subject of a further series is RMA tumor cells. Description: Priming of gag-specific CD8 T cells by RMA tumor cells, intracellular IFN-γ. It is filed as in vivo, mice. To be noted: RMA cells treated 5 μM 24 hours. As to the method: Seven days later, spleen cells were restimulated with either irrelevant D^b binding peptide or the dominant epitope of gag in the presence of blocker of ER/Golgi (brefeldin A) for 6 hours. The percentage of CD8 T cells produced intracellular IFN-γ was then determined by intracellular staining and flow cytometry analysis with antibodies against CD3, CD8, and IFN-γ.

The test system of another series is F10 melanoma cells. Description: Secretion of DRibbles by tumor cells treated with proteasome inhibitor (microscopy). In kind it is cell-based, mouse. Particulars: 5 μg/ml, 24 hours; FIG. 1A. As to the method: To prepare tumor-derived DRibbles, one T-150 flask of cultured tumor cells at about 80% confluence (about 30 million cells per flask) were treated for 24 hours with reversible proteasome inhibitor MG132 (5 μg/ml) or ALLN (5 μg/ml) to block proteasome-mediated degradation of ubiquitinated proteins. […] Culture supernatant was collected in a 50 ml conical tube 48 hours later, and whole tumor cells and large cell debris removed by a low speed centrifugation (250 g for 10 minutes) (FIG. 1B). The resulting supernatant was further centrifuged at a high speed (10,000 g for 15 minutes) to pellet DRibbles. The pellets (containing the DRibbles, see FIG. 1C) were washed once by re-suspending in PBS (20 ml) and pelleting at high speed as above. The washed pellets were resuspended in 300 μl PBS (10 μl DRibble=1 million cells) and snap frozen in liquid nitrogen and kept at −80° C. in small aliquots until use.

In the next series the test system is LC3. Description: Western blot analysis of LC-3 (autophagy marker). Particulars: 1 μM overnight, 293T cells. In kind it is cell-based, human. As to the method: To confirm whether Velcade induced autophagy, Western blot analysis of LC-3 was performed. LC3 is an autophagy marker; it converts from its LC3-I-nonlipidated form to the PE-conjugated form LC3-II. 293T were treated with 1 μM Velcade overnight and total cell lysates were subjected to Western blot analysis with anti-LC3 polyclonal antibody.

Another series deals with 293T tumor cells. Nature of the series: Fluorescence microscopy of GFP-OVA / GFP-LC3 transfected cells. It is filed as cell-based, human. Particulars: 1 μM. As to the method:
293T tumor cells were transfected with plasmids encoding Ub-M-GFP-OVA, GFP-LC3 fusion protein, or GFP-LC3 and tdTomato-Ub proteins. Transfected cells were treated with 1 μM Velcade 24 hours later. GFP-OVA or GFP-LC3 fusion proteins were used to visualize the antigens or autophagy membrane in the DRibbles using fluorescence microscopy. Co-tranfection of GFP-LC3 and tdTomato-Ub fusion plasmids was used to visualize accumulation of ubiquitinated DRiPs inside LC3 decorated DRibbles.

In series [5] the test system is 293T cell lines expressing GFP-OVA fusion proteins. Nature of the series: Western blot of DRibble lysates. In kind it is cell-based, human. As to the method: Lysates (10 μg) were prepared from DRibbles generated from 293T cell lines expressing different versions of GFP-OVA fusion proteins after Velcade treatment. The lysates were probed with antibodies against GFP, LC3, calrecticulin, HSP90α (cytosolic), and ubiquitin.

Series [6] relates to 293T cells expressing V-GFP-TfR-OVA fusion protein. Description: Cross-presentation of HSP90 inhibitor treated cells. In kind it is cell-based, human. To be noted: Velcade added to 17-AAD treated cells. As to the method:
as §2
Cross-presentation is analyzed as described in Example 5.

Series [7] shares this test system. Nature of the series: Western blot of fusion protein after HSP90 inhibitor and Velcade. In kind it is cell-based, human. Particulars: 1 μM Velcade 6 hours; 10 μM 17-AAD 16 hour.

Take `Cn1cnc(=N)c2ncn([C@@H]3O[C@H](CO)[C@@H](O)[C@H]3O)c21` [3-MA, 3-methyladenosine]: the “cross-presentation (OT-I division, CFSE dilution)” value in [1] is “severely curtailed”. For the same compound, the “full-length and short fragments of fusion proteins” value in [2] (24 hours) is “both full-length and short fragments of fusion proteins were increased”.

Turning to `O.O=P1(N(CCCl)CCCl)NCCCO1` (stereo not shown) [Cyclophosphamide, 2-[bis(2-chloroethyl)amino]tetrahydro-2H-1,3,2 oxazaphosphorine 2-oxide monohydrate], the bioavailability entry in series [3] is listed as “greater than 75%”. In addition, the “stability of reconstituted solution” value in [4] is “six”.

Consider `CC(C)C[C@@H](C=O)NC(=O)[C@H](CC(C)C)NC(=O)[C@H](CC(C)C)NC(=O)OCc1ccccc1` [MG-132, carbobenzyloxy-L-leucyl-L-leucyl-L-leucinal] (Cbz-Leu-Leu-Leu-aldehyde), for which, in the series with RMA tumor cells (background), the “percentage of IFN-γ-producing CD8 T cells, background” value is reported as 0.29%. Also, the “percentage of IFN-γ-producing CD8 T cells” value with RMA tumor cells (spleen cells seven days later restimulated with dominant epitope of gag) was 1.74%.

On to `CCCC[C@@H](C=O)NC(=O)[C@H](CC(C)C)NC(=O)[C@H](CC(C)C)NC(C)=O` [ALLN, N-Acetyl-Leu-Leu-norleucinal] (Ac-Leu-Leu-[Nle]-aldehyde), for which the “formation of prenuclear vacuoles and secretion of DRibbles” value in the series with F10 melanoma cells is “induced formation of prenuclear vacuoles and secretion of DRiPs containing blebs (DRibbles)”.

On to `CC(C)C[C@H](NC(=O)[C@H](Cc1ccccc1)NC(=O)c1cnccn1)B(O)O` [Velcade, N-pyrazinecarbonyl-L-phenylalanine-L-leucineboronic acid], for which the “autophagy induction (LC3-I and LC3-II)” value with LC3 is listed as “induced autophagy in 293T cells”. In addition, the “formation of punctate structures” value in the series with 293T tumor cells is given as “led to formation of cell-associated punctate positive for GFP-OVA or GFP-LC3”. In addition, in [5], the “GFP-OVA fusion protein in DRibbles” value is “resulted in large amount GFP-OVA fusion protein in the DRibbles”. The “amount of short fragments” value in series [2] (1 μM Velcade in the presence of 50 nM rapamycin, 24 hours) was “slightly increased the amount of short fragments”. For the same compound, in series [6], the DRiPs and cross-presentation entry was “rescued DRiPs but not cross-presentation”. Moreover, the “short-fragments of GFP-TfR-OVA fusion proteins” value in [7] is given as “dramatically increased”.

Turning to `Cl.N` [NH4Cl], the “cross-presentation (OT-I division, CFSE dilution)” value in series [1] is reported as “moderate increase of cross-presentation”. Further, the “full-length and short fragments of fusion proteins” value in [2] (24 hours) is listed as “even greater stabilizing effect of shorter fragments”. For the same compound, the “antigen / protein level detected by Western blot” value in [2] (as restated with the cross-presentation results) is “increased protein level”.
